In ChEMBL document CHEMBL6074623, “Carbamoylation at C-8 position of natural 3-arylcoumarin scaffold for the discovery of novel PARP-1 inhibitors with potent anticancer activity” (Eur J Med Chem, 2024):
Activity calls are given as the source filed them. The calls are words filed in the database; no cut-off is given here.

What was measured:
SUM149PT [1] = assay: Induction of ROS in human SUM149PT cells assessed as increase in fluorescence intensity incubated for 48 hrs by DCFH-DA staining based confocal laser scanning microscopic analysis; format: functional, cell-based
SUM149PT [2] = assay: Induction of apoptosis in human SUM149PT cells assessed as early apoptotic cells at 0.5 uM incubated for 24 hrs by Annexin V-FITC/PI staining based flow cytometry (reference value: 2.59 %); format: functional
SUM149PT [3] = assay: Induction of apoptosis in human SUM149PT cells assessed as late apoptotic cells at 0.1 uM incubated for 24 hrs by Annexin V-FITC/PI staining based flow cytometry (reference value: 2.45 %); format: functional
Mitochondrial membrane = assay: Induction of mitochondrial membrane potential loss in human SUM149PT cells at 2 uM incubated for 48 hrs by JC-1 staining based confocal laser scanning microscopic analysis relative to niraparib
SUM149PT [4] = assay: Induction of cell cycle arrest in human SUM149PT cells assessed as accumulation of cells at G2/M phase at 0.5 uM incubated for 48 hrs by propidium iodide/RNase A staining based flow cytometry (reference value: […] %); format: functional
SUM149PT [5] = assay: Induction of apoptosis in human SUM149PT cells assessed as necrotic cells at 0.5 uM incubated for 24 hrs by Annexin V-FITC/PI staining based flow cytometry (reference value: 1.27 %); format: functional
SUM149PT [6] = assay: Induction of cell cycle arrest in human SUM149PT cells assessed as accumulation of cells at G0/G1 phase at 2 uM incubated for 48 hrs by propidium iodide/RNase A staining based flow cytometry (reference value: 69.2 %); format: functional
SUM149PT [7] = assay: Induction of cell cycle arrest in human SUM149PT cells assessed as accumulation of cells at S phase at 0.5 uM incubated for 48 hrs by propidium iodide/RNase A staining based flow cytometry (reference value: 18.7 %); format: functional
CAPAN-1 [8] = assay: Antiproliferative activity against human CAPAN-1 cells assessed as inhibition of cell growth incubated for 48 hrs by MTT assay; format: functional, cell-based; conditions: CAPAN-1, 48 h
SUM149PT [9] = assay: Antiproliferative activity against human SUM149PT cells assessed as inhibition of cell growth at 20 uM incubated for 48 hrs by MTT assay relative to control; format: functional
SUM149PT [10] = assay: Induction of cell cycle arrest in human SUM149PT cells assessed as accumulation of cells at G0/G1 phase at 0.1 uM incubated for 48 hrs by propidium iodide/RNase A staining based flow cytometry (reference value: 69.2 %); format: functional
[11] = target: Poly [ADP-ribose] polymerase 2 (Homo sapiens, UniProt Q9UGN5); assay: Inhibition of PARP-2 in human SUM149PT cells incubated for 48 hrs by HRP-ELISA; format: cell-based
CAPAN-1 [12] = assay: Antiproliferative activity against human CAPAN-1 cells assessed as inhibition of cell growth at 5 uM incubated for 48 hrs by MTT assay relative to control; format: functional
SUM149PT [13] = assay: Induction of cell cycle arrest in human SUM149PT cells assessed as accumulation of cells at S phase at 2 uM incubated for 24 hrs by propidium iodide/RNase A staining based flow cytometry (reference value: 16.4 %); format: functional
SUM149PT [14] = assay: Induction of apoptosis in human SUM149PT cells assessed as late apoptotic cells at 0.1 uM incubated for 48 hrs by Annexin V-FITC/PI staining based flow cytometry (reference value: 1.13 %); format: functional
MDA-MB-436 = assay: Antiproliferative activity against human MDA-MB-436 cells assessed as inhibition of cell growth at 20 uM incubated for 48 hrs by MTT assay relative to control; format: functional
SUM149PT [15] = assay: Induction of apoptosis in human SUM149PT cells assessed as upregulation of cleaved caspase-3 expression incubated for 48 hrs by Western blotting analysis; format: functional, cell-based
SUM149PT [16] = assay: Antiproliferative activity against human SUM149PT cells assessed as inhibition of cell growth at 5 uM incubated for 48 hrs by MTT assay relative to control; format: functional
SUM149PT [17] = assay: Antiproliferative activity against human SUM149PT cells assessed as inhibition of cell growth incubated for 48 hrs by MTT assay; format: functional, cell-based
SUM149PT [18] = assay: Induction of apoptosis in human SUM149PT cells assessed as viable cells at 2 uM incubated for 24 hrs by Annexin V-FITC/PI staining based flow cytometry (reference value: 93.7 %); format: functional; conditions: read-out: Activity
SUM149PT [19] = assay: Induction of apoptosis in human SUM149PT cells assessed as necrotic cells at 0.5 uM incubated for 48 hrs by Annexin V-FITC/PI staining based flow cytometry (reference value: 0.51 %); format: functional
SUM149PT [20] = assay: Induction of cell cycle arrest in human SUM149PT cells assessed as accumulation of cells at G0/G1 phase at 0.5 uM incubated for 24 hrs by propidium iodide/RNase A staining based flow cytometry (reference value: 72.8 %); format: functional
SUM149PT [21] = assay: Induction of apoptosis in human SUM149PT cells assessed as early apoptotic cells at 2 uM incubated for 48 hrs by Annexin V-FITC/PI staining based flow cytometry (reference value: 2.28 %); format: functional
SUM149PT [22] = assay: Induction of apoptosis in human SUM149PT cells assessed as early apoptotic cells at 0.5 uM incubated for 48 hrs by Annexin V-FITC/PI staining based flow cytometry (reference value: 2.28 %); format: functional
SUM149PT [23] = assay: Induction of apoptosis in human SUM149PT cells assessed as early apoptotic cells at 0.1 uM incubated for 24 hrs by Annexin V-FITC/PI staining based flow cytometry (reference value: 2.59 %); format: functional
SUM149PT [24] = assay: Induction of cell cycle arrest in human SUM149PT cells assessed as accumulation of cells at S phase at 0.1 uM incubated for 24 hrs by propidium iodide/RNase A staining based flow cytometry (reference value: 16.4 %); format: functional
SUM149PT [25] = assay: Induction of cell cycle arrest in human SUM149PT cells assessed as accumulation of cells at G2/M phase at 0.1 uM incubated for 24 hrs by propidium iodide/RNase A staining based flow cytometry (reference value: 5.54 %); format: functional
[26] = target: Poly [ADP-ribose] polymerase 1 (Homo sapiens, UniProt P09874); assay: Inhibition of PARP-1 in human SUM149PT cells incubated for 48 hrs by HRP-ELISA; format: cell-based
SUM149PT [27] = assay: Induction of apoptosis in human SUM149PT cells assessed as upregulation of cleaved PARP expression incubated for 48 hrs by Western blotting analysis; format: functional, cell-based
SUM149PT [28] = assay: Induction of apoptosis in human SUM149PT cells assessed as viable cells at 2 uM incubated for 48 hrs by Annexin V-FITC/PI staining based flow cytometry (reference value: 96.1 %); format: functional; conditions: read-out: Activity

Chain of Poly [ADP-ribose] polymerase 1 (P09874 whole entry): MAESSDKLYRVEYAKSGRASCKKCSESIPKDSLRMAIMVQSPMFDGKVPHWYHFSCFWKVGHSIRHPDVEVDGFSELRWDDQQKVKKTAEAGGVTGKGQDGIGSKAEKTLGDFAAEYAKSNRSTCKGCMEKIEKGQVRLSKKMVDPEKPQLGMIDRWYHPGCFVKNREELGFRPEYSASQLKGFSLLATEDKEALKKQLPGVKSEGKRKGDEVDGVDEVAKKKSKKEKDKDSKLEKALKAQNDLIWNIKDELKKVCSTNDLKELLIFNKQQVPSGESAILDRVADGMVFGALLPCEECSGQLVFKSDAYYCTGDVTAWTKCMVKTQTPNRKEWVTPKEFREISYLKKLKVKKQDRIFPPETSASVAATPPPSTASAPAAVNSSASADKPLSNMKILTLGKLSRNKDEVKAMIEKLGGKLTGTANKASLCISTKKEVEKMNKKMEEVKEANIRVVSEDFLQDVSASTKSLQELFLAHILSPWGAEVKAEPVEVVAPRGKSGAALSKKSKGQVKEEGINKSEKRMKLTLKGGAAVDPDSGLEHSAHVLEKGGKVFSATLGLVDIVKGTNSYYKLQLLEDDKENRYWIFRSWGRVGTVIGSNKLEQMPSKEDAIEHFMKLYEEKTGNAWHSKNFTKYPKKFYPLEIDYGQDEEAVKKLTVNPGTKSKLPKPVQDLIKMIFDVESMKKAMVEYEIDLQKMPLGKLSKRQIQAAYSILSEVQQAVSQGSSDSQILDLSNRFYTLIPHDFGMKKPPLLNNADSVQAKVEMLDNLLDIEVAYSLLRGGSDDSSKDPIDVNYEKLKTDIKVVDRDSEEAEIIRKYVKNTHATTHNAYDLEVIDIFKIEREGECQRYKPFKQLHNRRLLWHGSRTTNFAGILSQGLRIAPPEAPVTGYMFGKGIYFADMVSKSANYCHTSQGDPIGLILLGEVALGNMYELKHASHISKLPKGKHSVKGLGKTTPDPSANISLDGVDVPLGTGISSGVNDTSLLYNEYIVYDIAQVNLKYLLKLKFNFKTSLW
Chain of Poly [ADP-ribose] polymerase 2 (Q9UGN5 whole entry): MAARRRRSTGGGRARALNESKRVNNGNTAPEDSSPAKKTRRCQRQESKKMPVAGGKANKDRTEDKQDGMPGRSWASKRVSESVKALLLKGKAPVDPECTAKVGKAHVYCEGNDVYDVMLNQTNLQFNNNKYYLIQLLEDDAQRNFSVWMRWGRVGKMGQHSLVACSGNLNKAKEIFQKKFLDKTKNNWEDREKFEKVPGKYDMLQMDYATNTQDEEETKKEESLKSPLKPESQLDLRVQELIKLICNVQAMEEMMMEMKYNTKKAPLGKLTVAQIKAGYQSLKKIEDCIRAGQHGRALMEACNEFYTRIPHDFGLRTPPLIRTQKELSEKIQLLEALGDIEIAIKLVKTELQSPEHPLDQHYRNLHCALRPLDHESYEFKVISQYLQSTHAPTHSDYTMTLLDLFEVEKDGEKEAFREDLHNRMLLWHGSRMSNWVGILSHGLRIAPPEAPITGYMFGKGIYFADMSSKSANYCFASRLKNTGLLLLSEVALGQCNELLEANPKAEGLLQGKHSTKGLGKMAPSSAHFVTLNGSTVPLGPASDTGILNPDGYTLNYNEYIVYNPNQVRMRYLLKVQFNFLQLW

In the case of COc1cccc(-c2cc3cc(F)cc(C(N)=O)c3oc2=O)c1, the Activity (SUM149PT [1]) is reported as “Dose-dependent-effect”, the Activity (SUM149PT [2]) is reported as 5.61% and the Activity (SUM149PT [3]) is reported as 2.69%. The Activity (Mitochondrial membrane) was “Active”, the Activity (SUM149PT [4]) was 36.7% and the Activity (SUM149PT [5]) was 2.31%. The Activity (SUM149PT [6]) was 16.9%, the Activity (SUM149PT [7]) was 25.3% and the IC50 (CAPAN-1 [8]) was 4260 nM. It also gave an inhibition at 20 µM (SUM149PT [9]) greater than 80%, an Activity (SUM149PT [10]) of 25.9% and an IC50 [11] of 6.45 nM. The inhibition at 5 µM (CAPAN-1 [12]) was greater than 50%, the Activity (SUM149PT [13]) was 22.3% and the Activity (SUM149PT [14]) was 6%. For the same molecule, the inhibition at 20 µM (MDA-MB-436) was less than 40%, the Activity (SUM149PT [15]) was “Dose-dependent-effect” and the inhibition at 5 µM (SUM149PT [16]) was greater than 70%. For the same molecule, the IC50 (SUM149PT [17]) was 620 nM, the viability at 2 µM (SUM149PT [18]) was 76.7% and the Activity (SUM149PT [19]) was 11.9%. It also gave an Activity (SUM149PT [20]) of 64.3%, an Activity (SUM149PT [21]) of 29.6% and an Activity (SUM149PT [22]) of 13.4%. The Activity (SUM149PT [23]) was 3.96%, the Activity (SUM149PT [24]) was 33.2% and the Activity (SUM149PT [25]) was 6.91%. For the same molecule, the IC50 [26] was 2.53 nM, the Activity (SUM149PT [27]) was “Dose-dependent-effect” and the viability at 2 µM (SUM149PT [28]) was 61%.
